{"source": "patent US10857196B2", "about": "“Bicyclic peptide ligands and uses thereof” (BicycleTx Limited, priority 2017, dated 2020)", "key": {"CAIX [1]": {"biological_target": "T1, CAIX (Homo sapiens, UniProt Q16790)", "experiment": "CAIX competition binding assay (competition fluorescence polarization)", "details": "fluorescent ligand A-(CAECWIDGWVPC)-A-Sar6-K(Fl)", "protocol": "CAIX Competition Binding Assay Affinity of the peptides of the invention for human CAIX (Ki) was determined using a competition fluorescence polarization assay analogous to that described in Dubois et al. (2011) Radiotherapy and Oncology 99(3), 424-43 using A-(CAECWIDGWVPC)-A-Sar6-K(Fl) (SEQ ID NO: 5) as the fluorescent ligand.\nA Ki value designated “A” denotes a Ki of ≤50 nM; a Ki value designated “B” denotes a K, of >50 nM and ≤100 nM; a Ki value designated “C” denotes a Ki of >100 nM and ≤1,000 nM; and a Ki value designated “D” denotes a Ki of >1,000 nM."}, "MT1-MMP": {"biological_target": "MT1-MMP (Homo sapiens, UniProt P50281)", "details": "bicyclic peptide formed with TBMB scaffold; MT1-MMP binder; cited from earlier work"}, "CAIX [2]": {"biological_target": "T1, CAIX", "details": "bicyclic peptide formed with TBMB scaffold; CAIX binder; cited from earlier work"}}, "note": "Square brackets hold non-standard residues; d marks the D form. Ends that are not written are not given here. 1Nal = N[C@@H](Cc1cccc2ccccc12)C(=O)O; Tle = CC(C)(C)[C@H](N)C(=O)O; βAla = NCCC(=O)O; Sar = CNCC(=O)O", "data": [{"compound": "CC(C)[C@@H]1NC(=O)[C@H](Cc2c[nH]c3ccccc23)NC(=O)[C@@H]2CSCC(=O)NCCn3c(=O)n(c(=O)n(c3=O)CCNC(=O)CSC[C@H](NC(=O)[C@H](C)NC(=O)CN(C)C(=O)CN(C)C(=O)CN(C)C(=O)CN(C)C(=O)CN(C)C(=O)CN(C)C(=O)CN(C)C(=O)CN(C)C(=O)CN(C)C(=O)CN(C)C(=O)CCN)C(=O)N[C@@H]([C@@H](C)O)C(=O)N[C@@H](CCC(=O)O)C(=O)N2)CCNC(=O)CSC[C@@H](C(=O)O)NC(=O)[C@@H]2CCCN2C(=O)[C@H](C(C)C)NC(=O)[C@H](Cc2c[nH]c3ccccc23)NC(=O)CNC(=O)[C@H](CC(=O)O)NC1=O", "note": "[Compound I-19]", "values": [{"measurement": "Ki", "setting": "CAIX [1]", "result": "50 to 100", "unit": "nM"}]}, {"compound": "CC(C)[C@@H]1NC(=O)[C@H](Cc2c[nH]c3ccccc23)NC(=O)[C@@H]2CSCC(=O)N3CC45CN(C[C@@]4(CN(C5)C(=O)CSC[C@H](NC(=O)[C@H](C)NC(=O)CN(C)C(=O)CN(C)C(=O)CN(C)C(=O)CN(C)C(=O)CN(C)C(=O)CN(C)C(=O)CN(C)C(=O)CN(C)C(=O)CN(C)C(=O)CN(C)C(=O)CCN)C(=O)N[C@@H]([C@@H](C)O)C(=O)N[C@@H](CCC(=O)O)C(=O)N2)C3)C(=O)CSC[C@@H](C(N)=O)NC(=O)[C@@H]2CCCN2C(=O)[C@H](C(C)C)NC(=O)[C@H](Cc2c[nH]c3ccccc23)NC(=O)CNC(=O)[C@H](CC(=O)O)NC1=O", "note": "[Compound I-23]", "values": [{"measurement": "Ki", "setting": "CAIX [1]", "result": "> 1000", "unit": "nM"}]}, {"compound": "CC(C)[C@@H]1NC(=O)[C@H](Cc2c[nH]c3ccccc23)NC(=O)[C@@H]2CSCC(=O)N3CCOCCN(CCOCCN(CCOCC3)C(=O)CSC[C@H](NC(=O)[C@H](C)NC(=O)CN(C)C(=O)CN(C)C(=O)CN(C)C(=O)CN(C)C(=O)CN(C)C(=O)CN(C)C(=O)CN(C)C(=O)CN(C)C(=O)CN(C)C(=O)CN(C)C(=O)CCN)C(=O)N[C@@H]([C@@H](C)O)C(=O)N[C@@H](CCC(=O)O)C(=O)N2)C(=O)CSC[C@@H](C(=O)O)NC(=O)[C@@H]2CCCN2C(=O)[C@H](C(C)C)NC(=O)[C@H](Cc2c[nH]c3ccccc23)NC(=O)CNC(=O)[C@H](CC(=O)O)NC1=O", "note": "[Compound I-26]", "values": [{"measurement": "Ki", "setting": "CAIX [1]", "result": "100 to 1000", "unit": "nM"}]}, {"compound": "βAla-Sar10-A-C(D-Ala)NE(1Nal)(D-Ala)CEDFYD(tBuGLy)C ([βAla][Sar][Sar][Sar][Sar][Sar][Sar][Sar][Sar][Sar][Sar]AC[dA]NE[1Nal][dA]CEDFYD[Tle]C; cysteine pairing not given here) [17-69-07-N241]", "values": [{"measurement": "Kd", "setting": "MT1-MMP", "result": 1.2, "unit": "nM"}]}, {"compound": "CC(C)[C@@H]1NC(=O)[C@H](Cc2c[nH]c3ccccc23)NC(=O)[C@@H]2CSCCC(=O)N3CCN(CCN(CC3)C(=O)CCSC[C@H](NC(=O)[C@H](C)NC(=O)CN(C)C(=O)CN(C)C(=O)CN(C)C(=O)CN(C)C(=O)CN(C)C(=O)CN(C)C(=O)CN(C)C(=O)CN(C)C(=O)CN(C)C(=O)CN(C)C(=O)CCN)C(=O)N[C@@H]([C@@H](C)O)C(=O)N[C@@H](CCC(=O)O)C(=O)N2)C(=O)CCSC[C@@H](C(N)=O)NC(=O)[C@@H]2CCCN2C(=O)[C@H](C(C)C)NC(=O)[C@H](Cc2c[nH]c3ccccc23)NC(=O)CNC(=O)[C@H](CC(=O)O)NC1=O", "note": "[Compound I-22]", "values": [{"measurement": "Ki", "setting": "CAIX [1]", "result": "100 to 1000", "unit": "nM"}]}, {"compound": "CC(C)[C@@H]1NC(=O)[C@H](Cc2c[nH]c3ccccc23)NC(=O)[C@@H]2CSCCC(=O)N3CC45CN(CC4(CN(C5)C(=O)CCSC[C@H](NC(=O)[C@H](C)NC(=O)CN(C)C(=O)CN(C)C(=O)CN(C)C(=O)CN(C)C(=O)CN(C)C(=O)CN(C)C(=O)CN(C)C(=O)CN(C)C(=O)CN(C)C(=O)CN(C)C(=O)CCN)C(=O)N[C@@H]([C@@H](C)O)C(=O)N[C@@H](CCC(=O)O)C(=O)N2)C3)C(=O)CCSC[C@@H](C(=O)O)NC(=O)[C@@H]2CCCN2C(=O)[C@H](C(C)C)NC(=O)[C@H](Cc2c[nH]c3ccccc23)NC(=O)CNC(=O)[C@H](CC(=O)O)NC1=O", "note": "[Compound I-24]", "values": [{"measurement": "Ki", "setting": "CAIX [1]", "result": "> 1000", "unit": "nM"}]}, {"compound": "βAla-Sar10-A-CTECWVDGWVPC [Compound 2]", "values": [{"measurement": "Kd", "setting": "CAIX [2]", "result": 10, "unit": "nM"}]}]}
